In patent publication US20240307819A1, “ELECTROCHEMICAL TARGET SPECIES CAPTURE WITH A REDOX-ACTIVE AMINE” (Massachusetts Institute of Technology, priority 2021, published 2024):

Tests used:
[1] = CO2 absorption by electrochemically reduced amine solutions; conditions: for CO2 capacity (absorption capacity): 1 mL aqueous 0.1-0.2 M amine, reduced, 15% CO2 inlet gas
Protocol: FIGS. 6A-6D are related to CO2 absorption dynamics in 1-APyl radical 2 solutions. […] 0.2 M 1-APyl radical 2 solution in 1 mL of water was contacted with the gas at a flow rate of 3.3 mL/min at room temperature. […] 1 mL of 0.04 M 1-APyl radical 2 solution was contacted with the gas at a flow rate of 3.3 mL/min at room temperature. […] A flow of 15% CO2 concentration balanced by nitrogen was used.
The changes in flow rate and concentration of CO2 were monitored by a CO2 flow meter and an FT-IR CO2 sensor, respectively.

[2] = Stability test of 1-APyl radical solution (oxygen sensitivity and nitrogen controls); type: physicochemical; conditions: 0.2 M, 5 mL
Protocol: (§1) FIGS. 8A-8C are related to direct air capture and stability test of 1-APyl radical 2 solution. […] 0.1, 0.2, and 0.4 M 1-APyl radical 2 aqueous solutions (1 mL) were bubbled with air at a flow rate of 3.3 mL/min at room temperature. […] The 1-APyl radical 2 solutions (0.2 M, 5 mL) were bubbled with dioxygen for 1 and 30 days (curve shading matching the shading of the labels in the figure) at a flow rate of 10 mL/min followed by contact with pure CO2 for an additional 12 min. The 1-APyl radical 2 solutions were sealed under nitrogen for 1 and 30 days followed by contact with pure CO2 for 12 min for the control experiments.
To test the stability of the 1-APyl radical in air, a set of experiments was carried out (FIG. 8C). Exposure to pure dioxygen (10 mL/min) of the 1-APyl radical 2 solution (0.2 M, 5 mL) for 1 and 30 days (see corresponding curve in FIG. 8C) followed by saturation with pure CO2 provided 6.6% and 46% decrease, respectively, of the capacity of the system compared to the output for the freshly CO2-saturated solution (see corresponding curve in FIG. 8C). […] Although further studies for the stability under the various conditions are warranted, operation in the presence of oxygen remains feasible.

[3] = Cyclic voltammetry of the redox-active amines; conditions: for Ep^red vs Ag/AgCl / Potential gap / Ep^oxi vs Ag/AgCl: Table 1; for Ep^red vs Ag/AgCl / Ep^oxi vs Ag/AgCl: techniques of Example 1; for Potential gap: gap between Ep^oxi and Ep^red
Protocol: Potentials were recorded versus Ag/AgCl as a reference electrode.
Cyclic voltammetry (CV) was conducted to probe the mechanism of this process as depicted in FIG. 4E.
Each of structures 1-20 were assessed for electrochemical capture and release of carbon dioxide in accordance with the techniques described above in Example 1. Absorption capacities for carbon dioxide are reported in units of moles of CO2 per mole of amine. […] For the release experiments, 3.5 mL solutions of amine and captured carbon dioxide at concentrations ranging from 0.1-0.2 M of amine were electrochemically oxidized at a constant current of 50 mA while released CO2 was measured as a function of charge passed.

[4] = Electrochemical release of CO2 by constant-current oxidation in an H-cell (electron utilization); design: key to stable electron utilization: moles CO2 released per mole of electrons transferred; conditions: for εCO2 (electron utilization during CO2 release): moles of CO2 released per moles of electrons, 0.1-0.2 M amine, constant current 50 mA
Protocol: FIGS. 5A-5F are related to electrochemical release of CO2. FIG. 5A is a schematic of the experimental setup for CO2 release. […] The amount of released CO2 (curve A) and electron utilization (curve B) are shown versus electric charge.
A bench-scale setup using an electrochemical H-cell was constructed and tested for the capture and release of CO2 (FIG. 5A). The system was equipped with an anion exchange membrane separating two 5 mL reaction chambers, carbon felt as a working electrode, and a stainless steel wire electrode for an arbitrary reaction in the counter chamber. […] Then, pure CO2 was bubbled into the solution for 10 min to complete the saturation of the electrochemically generated 1-Apyl radical dimer 3 solution. […] The electron utilization (εCO2) during CO2 release on oxidation represents the ratio between the moles of CO2 released and the moles of electrons transferred (equation 1): […]

[5] = Direct capture of CO2 from ambient air, then electrochemical oxidation; conditions: 0.2 M, 3.5 mL, bubbled with air 18 h at ca. 100 mL/min
Protocol: as §1
We next sought to expand the use of the 1-AP nitrate redox cycle to the direct capture of CO2 from ambient air (FIGS. 8A-8C). The 1-APyl radical dimer 3 solution (3.5 mL) was prepared by first reducing a 0.2 M 1-AP nitrate (1) solution, and then bubbling the solution with non-pretreated air for 18 h at a flow rate of ca. 100 mL/min (FIG. 8A). Electrochemical oxidation of the air-bubbled solution was carried out to evaluate the direct air capture efficiency. The system presented electron utilization during CO2 release of up to 0.78 with 36% cell capacity usage with the 0.2 M solution. […] Initial CO2 absorption rates from the ambient air were measured in 0.1, 0.2, and 0.4 M solutions of 1-APyl radical 2 (FIG. 8B). […]

[6] = Cyclic stability of electrochemical CO2 capture and release over 5 cycles
Protocol: FIGS. 7A-7D are related to cyclic stability of the electrochemical CO2 capture and release by 1-AP nitrate (1) redox system for 5 cycles.
The reversible capture and release of CO2 was tested over five cycles to evaluate the robustness of the 1-AP nitrate redox cycle (FIG. 7A-7D). The cyclic stability was evaluated with a 0.8 mmol amine solution and restricted to operate at 80% of the full capacity of the cell in order to minimize undesired side reactions. The gas output and CO2 fraction were monitored to show reproducible and stable capture and release of CO2 during five cycles under the applied current conditions. The gas release rate was steady at 0.75 mL/min, consistent with the release of one mole of CO2 per mole electrons transferred under steady current flow in each cycle.

Aqueous solubility = type: physicochemical; conditions: Table 1, aqueous solution
[7] = in water; cited from earlier work
[8] = 20 mM in water, 0.1 M potassium nitrate, nitrogen, platinum working electrode, 20 mV/s, room temperature

Compound	Ep^red vs Ag/AgCl [3]	εCO2 (electron utilization during CO2 release) ([4]; 3.5 mL)	Potential gap [3]	Ep^oxi vs Ag/AgCl [3]	CO2 capacity (absorption capacity) ([1]; 3.3 mL/min)	also measured
1-aminopyridinyl (1-APyl) radical [1-APyl radical 2]	–	–	–	–	–	CO2 absorption rate compared with EDA and MEA ([1]; 0.2 M in 1 mL water, 15% CO2 balanced by nitrogen): comparable; constant CO2 capacity ([1]; 1, 4, 15 and 100% CO2 inlet gas streams, 3.3 mL/min, room temperature): 1.94 mole of CO2 per mole of amine; decrease of the capacity of the system ([2]; bubbled with nitrogen 10 mL/min, 30 days): 54%; decrease of the capacity of the system ([2]; pure dioxygen 10 mL/min, 1 day, vs freshly CO2-saturated solution): 6.6%; decrease of the capacity of the system ([2]; pure dioxygen 10 mL/min, 30 days): 46%; decrease of the capacity of the system ([2]; sealed under nitrogen, 1 day): 7.2%; decrease of the capacity of the system ([2]; sealed under nitrogen, 30 days): 22%; stability in water (from quasi-reversible CV wave) ([3]; water, room temperature): stable in water at room temperature
N[n+]1ccccc1 [1-AP nitrate, 1-aminopyridinium]	–	–	–	–	–	stable electron utilization ([4]; 1 M 1-AP nitrate solution, 3.5 mL, 100 mA): 1.25; capacity of the electrochemical CO2 release process ([4]; per g of 1-AP nitrate): 12.4 mmol/g; electron utilization ([4]; solution prepared from 0.2 M 1-AP nitrate, 3.5 mL, 50 mA): up to 1.08; cell capacity usage, direct air capture [5]: 36%; electron utilization during CO2 release, direct air capture ([5]; 50 mA): up to 0.78; gas release rate ([6]; 0.2 M, 0.8 mmol in 4 mL water, 50 mA, 80% of full capacity, each of 5 cycles): 0.75 mL/min; robustness over cycles ([6]; 5 cycles): no significant loss in performance; oxidative peak potential [3, 8]: −0.32 V vs. Ag/AgCl; reductive peak potential [3, 8]: −0.45 V vs. Ag/AgCl
COC(=O)c1cc[n+](N)cc1.F[B-](F)(F)F [Entry 1]	−0.34 V	–	–	–	–	–
CC(C)(C)c1cc[n+](N)cc1.[O-][Cl+3]([O-])([O-])[O-] [Entry 3]	−0.48 V	0.52	1.31 V	0.83 V	–	Low solubility (Observations) (Aqueous solubility): (<0.2M)
COc1cc[n+](N)cc1.[O-][Cl+3]([O-])([O-])[O-] [Entry 4]	−0.70 V	0.70	1.75 V	1.05 V	–	Low solubility (Observations) (Aqueous solubility): (<0.2M)
Nc1cc[n+](N)cc1 [Entry 5]	−0.48 V	0.99	1.44 V	1.02 V	2.3 moles of CO2 per mole of amine	–
CN(C)c1cc[n+](N)cc1 [Entry 6]	−0.43 V	0.99	1.28 V	0.85 V	2.0 moles of CO2 per mole of amine	–
NC(=O)c1cc[n+](N)cc1.O=[N+]([O-])[O-] [Entry 7]	−0.49 V	0.69	1.37 V	0.88 V	1.1 moles of CO2 per mole of amine	–
N#Cc1cc[n+](N)cc1.O=[N+]([O-])[O-] [Entry 8]	−0.55 V	0.70	1.43 V	0.88 V	1.65 moles of CO2 per mole of amine	–
N[n+]1ccc(O)cc1 [Entry 9]	−0.56 V	0.32	1.41 V	0.85 V	0.95 moles of CO2 per mole of amine	–
CNc1cc[n+](N)cc1.O=[N+]([O-])[O-] [Entry 12]	−0.47 V	0.91	1.34 V	0.87 V	1.6 moles of CO2 per mole of amine	–
Cc1ccc[n+](N)c1.[O-][Cl+3]([O-])([O-])[O-] [Entry 13]	−0.47 V	0.83	1.47 V	1.00 V	–	–
COc1ccc[n+](N)c1.[O-][Cl+3]([O-])([O-])[O-] [Entry 14]	−0.44 V	0.41	1.30 V	0.84 V	–	–
Nc1ccc[n+](N)c1 [Entry 15]	−0.70 V	0.72	1.73 V	1.03 V	1.1 moles of CO2 per mole of amine	–
COc1cccc[n+]1N.O=[N+]([O-])[O-] [Entry 16]	−0.73 V	0.76	2.46 V	1.73 V	1.05 moles of CO2 per mole of amine	–
Cc1cccc(C)[n+]1N.[O-][Cl+3]([O-])([O-])[O-] [Entry 17]	−0.43 V	–	1.47 V	1.04 V	–	–
Cc1cc(C)c[n+](N)c1.[O-][Cl+3]([O-])([O-])[O-] [Entry 18]	−0.44 V	–	1.96 V	1.52 V	–	–
N[n+]1c2ccccc2nc2ccccc21 [Entry 20, amino-phenazinium]	–	–	–	–	–	solubility (Aqueous solubility; read-out: Low solubility (Observations)): < 10 mM
O=C(O)O [carbonic acid]	–	–	–	–	–	pKa [7]: approximately 6.8
